Assay results as given in publication PMC3545278 (Journal of pharmaceutical and biomedical analysis, 2012).
Where a name gives a salt, the structure may show the parent alone. Read-outs that look alike come from different tables or passages of the source.

Legend:
[1] = Rapid equilibrium dialysis; assay type: in vitro ADME; settings: human, plasma, pH 7.4
[2] = Rapid equilibrium dialysis; assay type: in vitro ADME, mouse; settings: for fraction unbound at 4 h, 10 μM: mouse, plasma, pH 7.4
[3] = Plasma stability, 37°C for 20 min, human plasma; assay type: in vitro ADME; settings: 5% CO2, 20 min, mean ± SEM
Ultrafiltration [4] = settings: human; for recovery at 20 min, 10 μM: human plasma; for fraction unbound at 20 min, 10 μM: plasma
[5] = human, cited from earlier work
Ultrafiltration [6] = assay type: in vitro ADME, mouse; settings: for recovery at 20 min, 10 μM / fraction unbound at 20 min, 10 μM: mouse; for recovery at 20 min, 10 μM / % Recovery from plasma / %PPB (UF): mouse plasma; for fraction unbound at 20 min, 10 μM: plasma; for % Recovery from plasma / %PPB (UF): 10 μM, mean ± SEM, n=3; for % Recovery from plasma: UF mass balance; for %PPB (UF): mass balance
[7] = Plasma stability as stated in text, species not specified; assay type: in vitro ADME; settings: 20 minute incubation at 37°C
[8] = longer than 20 min; cited from earlier work
in vitro = settings: human

SMILES | fraction unbound at 4 h, 10 μM [1] | fraction unbound at 4 h, 10 μM [2] | %Stability [3] [%] | recovery at 20 min, 10 μM (Ultrafiltration [4]) [%] | fraction unbound at 20 min, 10 μM (Ultrafiltration [4]) | recovery at 20 min, 10 μM (Ultrafiltration [6]) [%] | fraction unbound at 20 min, 10 μM (Ultrafiltration [6]) | further results
C[C@]12CCC(=O)C=C1CC[C@@H]1[C@@H]2[C@@H](O)C[C@@]2(C)[C@H]1CC[C@]2(O)C(=O)CO [Hydrocortisone] | 0.279 | 0.412 | 98.5±1.1 | 104 ± 3.3 | 0.368 | 102 ± 4 | 0.519 | %PPB (Literature) ([5]; ref 8): 65%; %PPB (Literature) ([5]; ref 23): 80%
O=C(Nc1cccc2cccnc12)c1ccc(N2C(=O)[C@@H]3[C@H](C2=O)[C@@H]2C=C[C@H]3C2)cc1 [IWR1] |  |  |  |  |  |  |  | stability in plasma [7]: stable; stability in plasma over longer periods of time [8]: known instability; % Recovery from plasma (Ultrafiltration [6]): 81.1±2.1%; %PPB (UF) (Ultrafiltration [6]): 95.5±0.9%
O=S(=O)(Nc1ccccc1)c1ccc(NC(=S)Nc2ccccc2)cc1 [LED209E] |  |  |  |  |  |  |  | %PPB (RED) ([2]; mouse plasma, 10 μM, 4 hours at 37°C, mean ± SEM, n=3): 99.2±0.1%; % Recovery from plasma (Ultrafiltration [6]): 101.0±1.5%; %PPB (UF) (Ultrafiltration [6]): 99.3±0.1%
CC[C@H](C)C(=O)O[C@H]1C[C@@H](C)C=C2C=C[C@H](C)[C@H](CC[C@@H]3C[C@@H](O)CC(=O)O3)[C@H]21 [Lovastatin] | 0.004 | 0.084 | 96.2±5.1 | 87.6 ± 3.6 | 0.026 | 82.1 ± 8.8 | 0.029 | %PPB (Literature) ([5]; ref 21): >95 [21] %
OC(CNc1ccccc1)Cn1c2ccc(Br)cc2c2cc(Br)ccc21 (stereo not drawn) [P7C3] |  |  |  |  |  |  |  | % Recovery from plasma (Ultrafiltration [6]): 100.0±9.4%
COc1cc(NS(=O)(=O)c2ccc(N)cc2)nc(OC)n1 [Sulfadimethoxine] |  | 0.044 |  |  |  | 109 ± 1.1 | 0.04 | 
Cc1nnc(NS(=O)(=O)c2ccc(N)cc2)s1 [Sulfamethiazole] | 0.108 | 0.353 | 101.9±0.4 | 99.4 ± 1.7 | 0.184 | 104 ± 1.2 | 0.348 | %PPB (Literature) ([5]; ref 22): 85–90 [22] %
CC(C)(C)NCC(O)c1cc(O)cc(O)c1 (stereo not drawn) [Terbutaline] | 0.627 | 0.638 | 106.5±3.3 | 104 ± 2.1 | 0.819 | 99.6 ± 8.4 | 0.81 | %PPB (Literature) ([5]; ref 21): 20%; %PPB (Literature) ([5]; ref 23): 25%
CCCCNC(=O)NS(=O)(=O)c1ccc(C)cc1 [Tolbutamide] |  |  | 102.2±0.8 | 97.4 ± 0.2 |  | 106 ± 3.1 |  | 
CC[C@]1(O)C[C@@H]2CN(CCc3c([nH]c4ccccc34)[C@@](C(=O)OC)(c3cc4c(cc3OC)N(C)[C@H]3[C@@](O)(C(=O)OC)[C@H](OC(C)=O)[C@]5(CC)C=CCN6CC[C@]43[C@@H]65)C2)C1 [Vinblastine] | 0.113 | 0.073 | 97.5±3.1 | 79.1 ± 2.1 |  | 87.5 ± 2.5 | 0.174 | 
O=C(CCCCCCC(=O)Nc1ccccc1)NO [Vorinostat] | 0.241 | 0.536 | 101.1±1.9 | 100 ± 2.1 | 0.396 | 98.7 ± 0.6 | 0.622 | 

The next lines start with results.

fraction unbound at 4 h, 10 μM [1] | fraction unbound at 4 h, 10 μM [2] | %Stability [3] [%] | recovery at 20 min, 10 μM (Ultrafiltration [4]) [%] | fraction unbound at 20 min, 10 μM (Ultrafiltration [4]) | recovery at 20 min, 10 μM (Ultrafiltration [6]) [%] | fraction unbound at 20 min, 10 μM (Ultrafiltration [6]) | SMILES | further results
0.79 | 0.611 | 98.6±2.6 | 102.6 ± 0.9 | 0.733 | 97.2 ± 2.5 | 0.701 | CC(=O)Nc1ccc(O)cc1 [Acetaminophen] | %PPB (Literature) ([5]; ref 20): 24±7 [20] %
0.002 | 0.013 | 111.0±8.8 | 89.7 ± 7.2 | 0.004 | 99 ± 9.7 | 0.011 | COc1ccc2c(c1)c(CC(=O)O)c(C)n2C(=O)c1ccc(Cl)cc1 [Indomethacin] | %PPB (Literature) ([5]; ref 23): 99 [23] %
0.03 | 0.024 | 104.8±2.0 | 87.6 ± 2.2 | 0.132 | 90.8 ± 3.2 | 0.046 | CC(=O)O[C@H]1C(=O)[C@@]2(C)[C@H]([C@H](OC(=O)c3ccccc3)[C@]3(O)C[C@H](OC(=O)[C@H](O)[C@@H](NC(=O)c4ccccc4)c4ccccc4)C(C)=C1C3(C)C)[C@]1(OC(C)=O)CO[C@@H]1C[C@@H]2O [Paclitaxel] | %PPB (Literature) ([5]; ref 23): 88 [23] %
0.166 | 0.264 | 98.7±1.2 | 100 ± 1.6 | 0.328 | 104 ± 7.6 | 0.326 | CC(C)NCC(O)COc1cccc2ccccc12 (stereo not drawn) [Propranolol HCl] | %PPB (Literature) ([5]; ref 8): 65–70 [8] %
 | 0.47 |  |  |  | 108 ± 2 | 0.403 | Nc1ccc(S(=O)(=O)Nc2ncccn2)cc1 [Sulfadiazine] | 
 | 0.195 |  |  |  | 107 ± 1.8 | 0.184 | Cc1ccnc(NS(=O)(=O)c2ccc(N)cc2)n1 [Sulfamerazine] | 
 | 0.418 |  |  |  | 108 ± 2.1 | 0.402 | Nc1ccc(S(=O)(=O)Nc2nccs2)cc1 [Sulfathiazole] | 
 | 0.009 |  |  |  | 94.3 ± 3.7 | 0.025 | CS(=O)(=O)c1ccc(C(=O)Nc2ccc(Cl)c(-c3ccccn3)c2)c(Cl)c1 [Vismodegib] | 
 |  | 100.4±4.5 |  |  | 99.8 ± 3.9 |  | CC(=O)CC(c1ccccc1)c1c(O)c2ccccc2oc1=O (stereo not drawn) [Warfarin] | recovery at 20 min, 10 μM (in vitro): 94.2 ± 3.8%
